This passage reports melting point results from patent publication US7060721B1, “Imidazole compounds and medicinal use thereof” (Fujisawa Pharmaceutical Co., Ltd., priority 1998, dated 2006).

A word on the melting point: it is the temperature of the solid-liquid transition. The compound `Cc1nc(Cl)c(/C=C/C(=O)NS(=O)(=O)/C=C/c2ccccc2)n1Cc1ccc(OCC2CCCCC2)cc1Cl` [Example 23, (2E)-3-(4-chloro-1-(2-chloro-4-((cyclohexyl)methyloxy)benzyl)-2-methylimidazol-5-yl)-N-(((E)-2-phenylethenyl)sulfonyl)-2-propenamide] displayed a melting point of 210 to 212 °C.

As for `CCC/C=C/S(=O)(=O)NC(=O)/C=C/c1c(Cl)nc(C)n1Cc1ccc(/C=C/c2ccccc2)cc1Cl` [Example 42, (E)-3-(4-chloro-1-(2-chloro-4-((E)-2-phenylethenyl)benzyl)-2-methylimidazol-5-yl)-N-((E)-1-penten-1-ylsulfonyl)-2-propenamide], the melting point is 226 to 228 °C.

For the compound `CCCCCOc1ccc(Cn2c(C)nc(Br)c2/C=C/C(=O)NS(=O)(=O)/C=C/c2ccccc2)c(Cl)c1` [Example 65, (E)-3-(4-bromo-1-(2-chloro-4-(1-pentyloxy)benzyl)-2-methylimidazol-5-yl)-N-((E)-2-phenylethenesulfonyl)-2-propenamide], the melting point lay within 208 to 209 °C.

Compound `Cc1nc(Cl)c(/C=C/C(=O)NS(=O)(=O)/C=C/c2ccccc2)n1Cc1ccc(Br)cc1Cl` [Example 8, (E)-3-(1-(4-bromo-2-chlorobenzyl)-4-chloro-2-methylimidazol-5-yl)-N-(((E)-2-phenylethenyl)sulfonyl)-2-propenamide] had a melting point of 250 to 251 °C.

Take `CCCCCOc1ccc(Cn2c(/C=C(\CCCCC)C(=O)NS(=O)(=O)/C=C/c3ccccc3)cnc2C)c(Cl)c1` [Example 68, (E)-3-(1-(2-chloro-4-(1-pentyloxy)benzyl)-2-methylimidazol-5-yl)-2-(1-pentyl)-N-((E)-2-phenylethenesulfonyl)-2-propenamide]: the melting point was 168 to 169 °C.

As to `Cc1nc(Cl)c(/C=C/C(=O)NS(=O)(=O)/C=C/c2ccccc2)n1Cc1ccc(OCC2CCCC2)cc1Cl` [Example 21, (2E)-3-(4-chloro-1-(2-chloro-4-((cyclopentyl)methyloxy)benzyl)-2-methylimidazol-5-yl)-N-(((E)-2-phenylethenyl)sulfonyl)-2-propenamide], the melting point was 200 to 201 °C.

In turn, `Cc1nc(Cl)c(/C=C/C(=O)NS(=O)(=O)/C=C/c2ccccc2)n1Cc1ccc(-c2ccco2)cc1Cl` [Example 2, (2E)-3-(4-chloro-1-(2-chloro-4-(2-furyl)benzyl)-2-methylimidazol-5-yl)-N-(((E)-2-phenylethenyl)sulfonyl)-2-propenamide] came in with a melting point of 227 to 228 °C.

Regarding `Cc1nc(Cl)c(/C=C/C(=O)NS(=O)(=O)c2ccccc2)n1Cc1ccc(-c2ccccc2)cc1Cl` [Example 10, (E)-N-benzenesulfonyl-3-[4-chloro-1-(2-chloro-4-phenylbenzyl)-2-methylimidazol-5-yl]-2-propenamide], the melting point lay within 245 to 247 °C.

In turn, `Cc1nc(Cl)c(/C=C/C(=O)NS(=O)(=O)/C=C/c2ccccc2)n1Cc1ccc(C#Cc2ccccc2)cc1Cl` [Example 6, (2E)-3-(4-chloro-1-(2-chloro-4-(phenylethynyl)benzyl)-2-methylimidazol-5-yl)-N-(((E)-2-phenylethenyl)sulfonyl)-2-propenamide] displayed a melting point of 220 to 222 °C.

For `Cc1nc(Cl)c(/C=C/C(=O)NS(=O)(=O)c2ccc(Cl)s2)n1Cc1ccc(-c2ccccc2)cc1Cl` [Example 13, (E)-3-(4-chloro-1-(2-chloro-4-phenylbenzyl)-2-methylimidazol-5-yl)-N-((5-chloro-2-thienyl)sulfonyl)-2-propenamide], the melting point was in the range of 229 to 233 °C.

As for `Cc1nc(Cl)c(/C=C/C(=O)NS(=O)(=O)c2ccc(Br)s2)n1Cc1ccc(-c2ccccc2)cc1Cl` [Example 14, (E)-N-((5-bromo-2-thienyl)sulfonyl)-3-(4-chloro-1-(2-chloro-4-phenylbenzyl)-2-methylimidazol-5-yl)-2-propenamide], the melting point lay in the range of 234 to 235 °C.

In the case of `CCCCCOc1ccc(Cn2c(/C=C(\Cc3ccccc3)C(=O)NS(=O)(=O)/C=C/c3ccccc3)cnc2C)c(Cl)c1` [Example 67, (E)-2-benzyl-3-(1-(2-chloro-4-(1-pentyloxy)benzyl)-2-methylimidazol-5-yl)-N-((E)-2-phenylethenesulfonyl)-2-propenamide], the melting point lay in the range of 171 to 172 °C.

With `CCC/C=C/S(=O)(=O)NC(=O)/C=C/c1c(Cl)nc(CC)n1Cc1ccc(/C=C/c2ccccc2)cc1Cl` [Example 63, (E)-3-(4-chloro-1-(2-chloro-4-((E)-2-phenylethenyl)benzyl)-2-ethylimidazol-5-yl)-N-((E)-1-penten-1-ylsulfonyl)-2-propenamide], the melting point was in the range of 197 to 200 °C.

For `CCCCCOc1ccc(Cn2c(C)nc(Cl)c2/C=C(\C)C(=O)NS(=O)(=O)/C=C/c2ccccc2)c(Cl)c1` [Example 71, (E)-3-(4-chloro-1-(2-chloro-4-(1-pentyloxy)benzyl)-2-methylimidazol-5-yl)-2-methyl-N-((E)-2-phenylethenesulfonyl)-2-propenamide], the melting point was 156 to 157 °C.

For the compound `CCCCCOc1ccc(Cn2c(C)nc(Cl)c2/C=C/C(=O)NS(=O)(=O)/C=C/c2ccccc2)c(Cl)c1` [Example 18, (E)-3-(4-chloro-1-(2-chloro-4-(1-pentyloxy)benzyl)-2-methylimidazol-5-yl)-N-(((E)-2-phenylethenyl)sulfonyl)-2-propenamide], the melting point was in the range of 196 to 199 °C.

`Cc1nc(Cl)c(/C=C/C(=O)NS(=O)(=O)/C=C/c2ccccc2)n1Cc1ccc(-c2ccccc2)cc1Cl` [Example 12, (E)-3-(4-chloro-1-(2-chloro-4-phenylbenzyl)-2-methylimidazol-5-yl)-N-(((E)-2-phenylethenyl)sulfonyl)-2-propenamide] displayed a melting point of 240 to 241 °C.

`CCC/C=C/S(=O)(=O)NC(=O)/C=C/c1c(Cl)nc(C)n1Cc1ccc(NC(=O)OC(C)(C)C)cc1Cl` [Example 50, (E)-3-(1-(4-(tert-butoxycarbonylamino)-2-chlorobenzyl)-4-chloro-2-methylimidazol-5-yl)-N-((E)-1-penten-1-ylsulfonyl)-2-propenamide] had a melting point of 209 to 210 °C.

Regarding `Cc1nc(Cl)c(/C=C/C(=O)NS(=O)(=O)/C=C/c2ccccc2)n1Cc1ccc(OCc2ccccc2)cc1Cl` [Example 25, (E)-3-(1-(4-benzyloxy-2-chlorobenzyl)-4-chloro-2-methylimidazol-5-yl)-N-(((E)-2-phenylethenyl)sulfonyl)-2-propenamide], the melting point fell in the range of 225 to 227 °C.

On to `CCCCS(=O)(=O)NC(=O)/C=C/c1c(Cl)nc(CC)n1Cc1ccc(C#Cc2ccccc2)cc1Cl` [Example 56, (E)-N-(1-butanesulfonyl)-3-(4-chloro-1-(2-chloro-4-(phenylethynyl)benzyl)-2-ethylimidazol-5-yl)-2-propenamide], for which the melting point is 165 to 167 °C.

In turn, `Cc1nc(Cl)c(/C=C/C(=O)NS(=O)(=O)/C=C/c2ccccc2)n1Cc1ccc(/C=C/c2ccccc2)cc1Cl` [Example 35, (E)-3-(4-chloro-1-(2-chloro-4-((E)-2-phenylethenyl)benzyl)-2-methylimidazol-5-yl)-N-(((E)-2-phenylethenyl)sulfonyl)-2-propenamide] had a melting point of 230 to 232 °C.

For `CCCOc1ccc(Cn2c(C)nc(Cl)c2/C=C/C(=O)NS(=O)(=O)/C=C/c2ccccc2)c(Cl)c1` [Example 16, (E)-3-(4-chloro-1-(2-chloro-4-(1-propoxy)benzyl)-2-methylimidazol-5-yl)-N-(((E)-2-phenylethenyl)sulfonyl)-2-propenamide], the melting point lay in the range of 199 to 201 °C.

As for `CCCCCS(=O)(=O)NC(=O)/C=C/c1c(Cl)nc(C)n1Cc1ccc(/C=C/c2ccccc2)cc1Cl` [Example 41, (E)-3-(4-chloro-1-(2-chloro-4-((E)-2-phenylethenyl)benzyl)-2-methylimidazol-5-yl)-N-(1-pentanesulfonyl)-2-propenamide], the melting point is 215 to 216 °C.

In turn, `Cc1nc(Cl)c(/C=C/C(=O)NS(=O)(=O)/C=C/c2ccccc2)n1Cc1ccc(-c2cccs2)cc1Cl` [Example 4, (2E)-3-(4-chloro-1-(2-chloro-4-(2-thienyl)benzyl)-2-methylimidazol-5-yl)-N-(((E)-2-phenylethenyl)sulfonyl)-2-propenamide] displayed a melting point of 246 to 248 °C.

In turn, `CCC/C=C/S(=O)(=O)NC(=O)/C=C/c1c(Cl)nc(CC)n1Cc1ccc(C#Cc2ccccc2)cc1Cl` [Example 58, (E)-3-(4-chloro-1-(2-chloro-4-(phenylethynyl)benzyl)-2-ethylimidazol-5-yl)-N-((E)-1-penten-1-ylsulfonyl)-2-propenamide] returned a melting point of 173 to 175 °C.

On to `Cc1nc(Cl)c(/C=C/C(=O)NS(=O)(=O)/C=C/c2ccccc2)n1Cc1ccc([N+](=O)[O-])cc1Cl` [Example 33, (E)-3-(4-chloro-1-(2-chloro-4-nitrobenzyl)-2-methylimidazol-5-yl)-N-(((E)-2-phenylethenyl)sulfonyl)-2-propenamide], for which the melting point lay within 199 to 201 °C.

`CCc1nc(Cl)c(/C=C/C(=O)NS(=O)(=O)/C=C/c2ccccc2)n1Cc1ccc(Br)cc1Cl` [Example 53, (E)-3-(1-(4-bromo-2-chlorobenzyl)-4-chloro-2-ethylimidazol-5-yl)-N-((E)-2-phenylethenesulfonyl)-2-propenamide] registered a melting point of 209 to 210 °C.

Consider `CCc1nc(Cl)c(/C=C/C(=O)NS(=O)(=O)/C=C/c2ccccc2)n1Cc1ccc(C#Cc2ccccc2)cc1Cl` [Example 54, (E)-3-(4-chloro-1-(2-chloro-4-(phenylethynyl)benzyl)-2-ethylimidazol-5-yl)-N-((E)-2-phenylethenesulfonyl)-2-propenamide], for which the melting point lay within 233 to 234 °C.

On to `CCc1nc(Cl)c(/C=C/C(=O)NS(=O)(=O)c2ccc(C)cc2)n1Cc1ccc(/C=C/c2ccccc2)cc1Cl` [Example 60, (E)-3-(4-chloro-1-(2-chloro-4-((E)-2-phenylethenyl)benzyl)-2-ethylimidazol-5-yl)-N-(4-methylbenzenesulfonyl)-2-propenamide], for which the melting point fell in the range of 250 to 252 °C.

As to `CCCCS(=O)(=O)NC(=O)/C=C/c1c(Cl)nc(CC)n1Cc1ccc(/C=C/c2ccccc2)cc1Cl` [Example 61, (E)-N-(1-butanesulfonyl)-3-(4-chloro-1-(2-chloro-4-((E)-2-phenylethenyl)benzyl)-2-ethylimidazol-5-yl)-2-propenamide], the melting point was 210 to 213 °C.
